By mass density is commonly meant mass per unit of volume. As usually defined, the vapor or sublimation pressure is the pressure of vapour in equilibrium with the condensed phase. As a reminder, the refractive index is the speed of light in vacuum divided by its phase velocity in the sample.

For data set [1] the following is noted: Liquid; for mass density: 298.15 K, 101.33 kPa; for vapor or sublimation pressure: Ebulliometric method (Recirculating still).
A short description of data set [2]: refractive index (Na D-line) (dimensionless). The settings on record: 298.15 K; 101.33 kPa; Liquid; Standard Abbe refractometry.

Each structure is given as a SMILES string. ± gives the expanded uncertainty stated by the source.

With `CC(C)OC(C)C` [diisopropyl ether], the mass density in data set [1] came out at 718.32 ± 0.96 kg/m3. In data set [1] (341.49 K), the “vapor or sublimation pressure” value is on record as 101.3 ± 0.3 kPa. Also, the refractive index in data set [2] was 1.3652 ± 0.0005.

On to `CC(C)O` [propan-2-ol], for which, in data set [1], the mass density came out at 782.69 ± 0.24 kg/m3. Also, in data set [1] (355.35 K), the “vapor or sublimation pressure” value came out at 101.3 ± 0.2 kPa. The refractive index in data set [2] came to 1.3754 ± 0.0005.

`CCCCOC(=O)CC` [butyl propanoate]: the mass density in data set [1] is 870.88 ± 0.65 kg/m3. Also, the “vapor or sublimation pressure” value in data set [1] (418.69 K) came to 101.3 ± 0.3 kPa. The refractive index in data set [2] is 1.3992 ± 0.0005.

Source of the values: the NIST ThermoML archive (doi:10.1021/je900042q).
